Assays:
SEM-K2 cells [1] = assay: Combination therapy with EB10 and MTX in SEM-K2 leukemia model; format: in vivo, NOD/SCID mice; details: monotherapy: EB10 10 mg/kg i.p. 2×/week; MTX 100 mg/kg Q7D
Protocol: One day prior to the start of treatment, i.v. inject 65, 7 weeks old, male NOD/SCID mice with 5×10^5 SEM-K2 cells suspended in PBS in a total volume of 200 μl. Drop from the study mice receiving less than 90% of cells intravenously.
Prepare MTX (Sigma Chemical, Cat # M9929) in USP Saline at a concentration of 10 mg/ml and dose Q7D for three cycles. […] Record mouse survival daily. Follow the mice for survival, and sacrifice any mouse displaying signs of morbidity/mortality; mark as dead on the day of sacrifice. End the study on day 168 and sacrifice any mice surviving to that point. Compare survival in the treatment groups by Log Rank Test between treatment groups.

SEM-K2 cells [2] = assay: SEM-K2 xenograft human leukemia model; format: in vivo, NOD-SCID mice; details: 20 mg/kg i.p. two times weekly
Human Leukemia Cells = assay: ADCC 51Cr release assay with human NK cells; format: cell-based
[3] = target: wild-type FLT3 expressed on human leukemia cells (human) (UniProt P36888); assay: cell-based or functional assay
Chain of wild-type FLT3 expressed on human leukemia cells (human) (P36888 27-993 limits assumed): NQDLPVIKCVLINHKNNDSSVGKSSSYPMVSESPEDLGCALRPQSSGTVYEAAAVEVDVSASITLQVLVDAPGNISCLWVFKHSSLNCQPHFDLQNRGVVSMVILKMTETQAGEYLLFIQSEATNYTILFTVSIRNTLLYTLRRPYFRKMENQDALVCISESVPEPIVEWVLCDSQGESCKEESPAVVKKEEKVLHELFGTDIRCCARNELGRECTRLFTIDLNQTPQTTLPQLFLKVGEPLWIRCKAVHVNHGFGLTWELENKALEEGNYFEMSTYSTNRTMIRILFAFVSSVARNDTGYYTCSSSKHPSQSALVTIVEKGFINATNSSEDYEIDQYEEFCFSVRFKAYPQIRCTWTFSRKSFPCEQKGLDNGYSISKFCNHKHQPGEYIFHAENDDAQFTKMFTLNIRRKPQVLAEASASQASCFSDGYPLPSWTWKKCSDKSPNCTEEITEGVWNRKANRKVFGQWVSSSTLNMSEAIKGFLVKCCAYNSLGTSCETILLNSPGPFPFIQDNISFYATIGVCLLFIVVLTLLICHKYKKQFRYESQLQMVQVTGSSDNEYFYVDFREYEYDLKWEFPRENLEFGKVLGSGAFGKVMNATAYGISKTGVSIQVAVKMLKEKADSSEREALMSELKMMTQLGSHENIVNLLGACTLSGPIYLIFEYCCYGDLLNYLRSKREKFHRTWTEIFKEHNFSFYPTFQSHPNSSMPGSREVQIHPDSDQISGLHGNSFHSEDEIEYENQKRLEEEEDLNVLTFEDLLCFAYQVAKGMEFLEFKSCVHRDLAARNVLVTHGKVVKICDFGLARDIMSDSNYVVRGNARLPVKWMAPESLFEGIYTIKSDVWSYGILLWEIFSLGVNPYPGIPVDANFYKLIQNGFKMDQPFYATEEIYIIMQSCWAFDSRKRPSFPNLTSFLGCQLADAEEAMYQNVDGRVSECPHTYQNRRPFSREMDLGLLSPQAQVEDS

[4] = target: ITD-mutant FLT3 expressed on BaF3-ITD cells; assay: cell-based or functional assay
Chain of ITD-mutant FLT3 expressed on BaF3-ITD cells (chain, as listed by the source mutant limits assumed, form in doubt): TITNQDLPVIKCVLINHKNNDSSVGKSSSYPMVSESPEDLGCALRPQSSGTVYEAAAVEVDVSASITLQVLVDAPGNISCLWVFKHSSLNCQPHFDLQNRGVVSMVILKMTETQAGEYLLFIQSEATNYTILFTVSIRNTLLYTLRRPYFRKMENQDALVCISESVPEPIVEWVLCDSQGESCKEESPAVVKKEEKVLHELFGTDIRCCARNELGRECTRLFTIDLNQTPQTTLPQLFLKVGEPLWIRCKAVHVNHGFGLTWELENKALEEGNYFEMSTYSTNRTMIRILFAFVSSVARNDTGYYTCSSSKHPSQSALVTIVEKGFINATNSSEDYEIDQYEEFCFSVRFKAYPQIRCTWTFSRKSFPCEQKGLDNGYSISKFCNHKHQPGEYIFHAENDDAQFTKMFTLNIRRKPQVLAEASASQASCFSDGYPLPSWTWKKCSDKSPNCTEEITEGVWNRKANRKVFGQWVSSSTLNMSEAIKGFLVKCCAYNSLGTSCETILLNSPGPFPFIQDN

[5] = test system: human leukemia cells (human CD45) in bone marrow; assay: Bone marrow engraftment of human leukemia cells; format: in vivo, mice; details: 500 μg/dose; versus control-IgG treated group
Protocol: Bone Marrow Engraftment of Human Leukemia Cells: Harvest bone marrow from the femurs of EB10-treated mice (500 μg/dose) and the control-IgG treated group at […]. Analyze cells for human CD45 by flow cytometry at 6 and 14 weeks post leukemia cell injection for the degree of tumor cell infiltration of bone marrow. Compare the degree of tumor cell infiltration of bone marrow using immunohistochemical staining with a fluorescence-labeled anti-human CD45 antibody.

MOLM-14 leukemia cells = assay: MOLM14 xenograft AML leukemia model; format: in vivo, mice
Protocol: MOLM14 Xenograft AML Leukemia Model: Irradiate mice with 200 rads with a gamma irradiator and then i.v. inject with 10×10^6 MOLM-14 leukemia cells. Start treatment one day after tumor injection. […] Treat the control group with […] USP saline. Monitor mice daily for survival. Compare survival in the treatment groups by Log Rank test.

Stat5 = Stat5 phosphorylation assay; details: EOL-1, wild type
BaF3-ITD cells [6] = assay: FL-independent cell proliferation assay ([3H]-thymidine); format: cell-based
Protocol: Harvest EOL-1 cells and wash three times using serum-free RPMI 1640 medium. Culture cells in serum-free RPMI 1640 medium for 12 hours. For BaF3-ITD cells, perform the proliferation assay in RPMI 1640 medium supplemented with 10% FCS in the absence of exogenous FL. Reconstitute cells in serum-free AIM-V medium, plate in triplicates in a flat-bottomed 96-well plate (1×104/100 μl/well) and incubate with varying concentrations of antibodies (from 0 to 100 nM) and 30 ng/ml of FL at 37° C. for 68 hours. As a background control, incubate cells with medium alone in the absence of exogenous FL. Pulse cells with 0.25 μCi/well of [^3H]-thymidine for 4 hours. Harvest cells and measure cpm in a PerkinElmer Wallace-1205 Betaplate Liquid Scintillation Counter (Wellesley, Mass.). Calculate the percent inhibition of FL-induced proliferation for EOL-1 cells; deduce the cpm of background proliferation (i.e., cell samples not stimulated with FL) from the cpm of all experimental samples. Calculate percent inhibition using the following formula: [(cpm of untreated sample−cpm of antibody-treated sample)/cpm of untreated sample]×100%.

EOL-1 leukemia cells = assay: EOL-1 xenograft human AML leukemia model; format: in vivo, NOD-SCID mice
BaF3-ITD cells [7] = assay: BaF3-ITD leukemia model; format: in vivo, athymic (nu/nu) mice
Protocol: BaF3-ITD Leukemia Model: Initiate i.v. injection of groups of 10 athymic (nu/nu) mice with 5×10^4 BaF3-ITD cells. For statistic analysis, use the non-parametric one-tailed Mann-Whitney Rank Sum test (SigmaStat 2.03, SPSS, Inc., Chicago, Ill.). Start treatment one day after tumor injection. […] Treat the control group with purified human IgG (500 μg/dose). Monitor mice daily for survival.

[8] = 100 μg/dose i.p. three times weekly
[9] = 500 μg/dose i.p. three times weekly

## CN(Cc1cnc2nc(N)nc(N)c2n1)c1ccc(C(=O)N[C@@H](CCC(=O)O)C(=O)O)cc1 [MTX, methotrexate, reference compound]
SEM-K2 cells [1]
  mouse survival in comparison to the control group (in words): prolonged survival

## D4-3: recombinant human monoclonal antibody, full length IgG1κ targeting human FLT3; heavy chain SEQ ID NO 27, light chain SEQ ID NO 30 [Antibody D4-3]
SEM-K2 cells [2]
  median survival: 55.5 days
Human Leukemia Cells
  ADCC response (in words): less potent ADCC response

## control IgG (antibody)
[3]
  % Inhibition of FL-induced proliferation of EOL-1 cells at 100 nM: 0.4%
[4]
  % Inhibition of FL-independent proliferation of BaF3-ITD cells at 100 nM: 2%

## EB10: recombinant human monoclonal antibody, full length IgG1κ targeting human FLT3; heavy chain SEQ ID NO 25, light chain SEQ ID NO 28
[5]
  number of tumor cells in bone marrow: decreased significantly
SEM-K2 cells [1]
  mouse survival in comparison to the control group (in words): significantly prolonged mouse survival
MOLM-14 leukemia cells; 0.2 mg/kg i.p. two times weekly
  median survival: 38.5 days
MOLM-14 leukemia cells; 10 mg/kg i.p. two times weekly
  median survival: 63 days
Stat5
  Inhibition of Stat5 Phosphorylation (IC50): No effect
SEM-K2 cells [2]
  median survival: 108.5 days
Human Leukemia Cells
  ADCC response (in words): strong ADCC response
BaF3-ITD cells [6]; 6 nM
  % Inhibition of FL-independent proliferation (Mean ± Standard deviation): 9.6 ± 3.1%
BaF3-ITD cells [6]; 13 nM
  % Inhibition of FL-independent proliferation (Mean ± Standard deviation): 13.0 ± 4.0%
BaF3-ITD cells [6]; 25 nM
  % Inhibition of FL-independent proliferation (Mean ± Standard deviation): 23.3 ± 0.6%
BaF3-ITD cells [6]; 50 nM
  % Inhibition of FL-independent proliferation (Mean ± Standard deviation): 28.6 ± 3.1%
BaF3-ITD cells [6]; 100 nM
  % Inhibition of FL-independent proliferation (Mean ± Standard deviation): 29.2 ± 3.0%
EOL-1 leukemia cells; 10 μg
  effect on survival (in words): No effect
EOL-1 leukemia cells; [8]
  mean survival time: 52.8 ± 18.6 days
EOL-1 leukemia cells; 250 μg/dose i.p. three times weekly
  mean survival time: 55.3 ± 18.9 days
EOL-1 leukemia cells; [9]
  mean survival time: 62.3 ± 18.7 days
BaF3-ITD cells [7]; [8]
  mean survival time: 66.5 ± 32.9 days
BaF3-ITD cells [7]; [9]
  mean survival time: 63.4 ± 44.6 days
